This is an account of results in article PMC4434572, “Identification of novel drugs to target dormant micrometastases” (BMC Cancer, 2015).

The subject of test [1] is 4T1 parental cells. As to the kind of experiment: EC50 on parental 4T1 cell line grown on plastic surface. In kind it is cell-based, mouse. As to the method:
Because cancer stem cells are highly resistant to conventional chemotherapy and are thought to initiate tumors, the activity of the DT series of drugs was also checked against cancer stem cells obtained from the 4T1 line. […] For comparison the EC50 values of DT310, DT320, and doxorubicin were determined in 4T1 parental cells plated on plastic. Because this assay targeting stem cells was performed in suspension culture, we also tested whether SISgel differentiated the stem cells. As indicated by the presence of pluripotency markers (Nanog, Sox2, Oct4), the cells retained their pluripotency markers on SISgel (Fig. 5). […] The 4T1 stem cells could not be tested on Matrigel or on plastic because they differentiate and are therefore no longer stem cells. 4T1 cancer stem cells were much more sensitive to the DT agents, particularly to DT320, than to conventional chemotherapeutic drugs.

In test [2] the test system is 4T1 stem cells (CD44v3highALDH1high 4T1 cells). As to the kind of experiment: Tumor cell growth inhibition of sphere-derived cancer stem cells (CellTiter-Glo). In kind it is cell-based, mouse. The note with it: for Fold change: stem cell EC50 vs parental EC50. The protocol: Sphere formation to further increase the fraction of cancer stem cells was induced by suspending CD44v3highALDH1high 4T1 cells in 1:1 Matrigel/basal medium in a total of volume of 100 μl. Samples (5 × 10^4 cells) were then plated around the rims of wells in a 12-well plate and allowed to solidify at 37 °C for 10 min before 1 ml basal medium (with B27 plus 20 ng/mL EGF, 10 ng/mL FGF and 4 μg/mL insulin) was added. Medium was replenished every 3-days. Ten days after plating, spheres (tight, spherical, nonadherent masses >40 μm in diameter) per well were counted, and at least 100 spheres per group were measured. The number of spheres containing CD44v3highALDH1high 4T1 cells in each well and expressed as sphere forming units (SFU) as described previously. The number of SFUs per well was counted in triplicate wells for each condition.
To recover CD44v3highALDH1high 4T1 cells from the spheres, Matrigel–containing wells were treated with 1 mg/ml Dispase solution (Gibco). Spheres were then digested with trypsin and 0.05 % EDTA. CD44v3highALDH1high cells dissociated from spheres were counted by hemacytometer and replated to generate spheres of next generation. Serial passage of individual spheres was regularly performed in order to verify self-renewal capability of cells associated the spheres. Measurement of growth for CD44v3highALDH1high cells (dissociated from spheres) was also performed by incubating these cells in serum-free RPMI-1640 medium for 3-weeks using MTT-based growth assay as described previously.
To analyze tumor cell growth properties, sphere-derived CD44v3highALDH1high 4T1 cells were incubated in basal medium (with B27 plus 20 ng/mL EGF, 10 ng/mL FGF and 4 μg/mL insulin). Medium was replenished every 3-days. Twenty-one days after plating, the number of cell growth was then counted under a microscope at low magnification. In some cases, these sphere-derived CD44v3highALDH1high 4T1 cells were also treated with DT compounds for 5 days or doxorubicin (range 1 μM to 1 mM) for 5 days at 37 °C. The CellTiter-Glo® Luminescent Cell Viability Assay (Promega, Madison, WI) was utilized to determine the number of metabolically active cells based on the quantification of adenosine triphosphate (ATP). The percentage of […] relative to untreated controls was plotted as a linear function of drug concentration. The 50 % inhibitory concentration (IC50) was identified as the concentration of drug required to achieve a 50 % growth inhibition relative to untreated controls.
A stem cell–enriched cell population was prepared as described previously by sorting for ALDH1 and CD44v3. The identification of aldehyde dehydrogenase1 (ALDH1) activity from tumor–derived 4T1 Luc2-GFP cells (PerkinElmer, Waltham, MA) was conducted using the ALDEFLUOR kit (StemCell Technologies, Durham, NC). Specifically, tumor cells were suspended in ALDEFLUOR assay buffer containing ALDH1 substrate (BAAA, […] per 1 × 10^6 cells) and incubated for 30 min at 37 °C. As a negative control, 4T1 cells were treated with a specific ALDH1 inhibitor, […] diethylaminobenzaldehyde (DEAB). Next, for labeling cell surface marker, tumor–derived 4T1 cells were suspended in 100 μl ALDEFLUOR buffer followed by incubating with 20 μl allophycocyanin (APC)-labeled anti-CD44v3 antibody (recognizing the v3-specific domain of CD44) or APC-labeled normal mouse IgG (as a control) (BD Bioscience, San Jose, CA) for 15 min at 4 °C. For FACS sorting, tumor cells were incubated in PBS buffer followed by FACS (BD FACS Aria llu, BD Bioscience, San Jose, CA) sorting using dual-wavelength analysis as described previously. The parental cell line contained 2 % CD44v3highALDH1high cells but the final sorted cells contained 18 % CD44v3highALDH1high cells, a 9-fold enrichment.
(ATP-based viability assays read luminescence as a measure of living cells.)

Test [3] relates to 4T1 Luc2-GFP cells. As to the kind of experiment: Orthotopic 4T1 syngeneic model of triple-negative breast cancer with natural lung metastasis. The note with it: for number of large multicellular micrometastases and vascularized macrometastases to the lung: i.p. or osmotic pump. In kind it is in vivo, BALB/c mice. As to the method:
4T1 Luc2-GFP cells (PerkinElmer, Waltham, MA) were cultured in DMEM high glucose media with 2 mM pyruvate, 2 mM glutamine, 2 % Pen/Strep and 10 % Cosmic Calf Serum (Mediatech, Manassas, VA). To prepare cells for injection they were removed from flasks, counted using the TC10 counting system (BioRad, Hercules, CA) and checked for viability. Cells were then washed with PBS, pelleted and taken up at a concentration of 75,000 cells/ml; 100 μl of cell suspension (7,500 cells) was injected subcutaneously (bevel side up) into mammary fat pad #4 of 8 weeks old female BALB/c mice (NCI National Laboratory Frederick/Charles River animal production program). All animals were weighed and tumors were measured using calipers three times weekly. Beginning one week after implantation, which is when micrometastatic cells begin to arrive in the lungs, animals were treated three times per week with intraperitoneal DT310 or DT320 at their NOAEL dose of 75 mg/kg three times week dissolved in saline or by osmotic pump. The osmotic pumps (Alzet #2004) delivered an NOAEL dose of 23.4 and 26.7 μg/h of DT310 and DT320, respectively, for 4 weeks and were implanted as directed subcutaneously posterior to scapulae. Docetaxel was delivered once weekly intraperitoneally at its MTD of 15 mg/kg and doxorubicin delivered once weekly at its MTD of 1 mg/kg in 5 % N-Methyl-2-pyrrolidone, 5 % Solutol HS, and 90 % saline. GFP positive cells were imaged with excitation of GFP emission using a Leica Model Z16 APO fluorescence microscope equipped for a wide field, a large depth of field and 0.57–9.2X zoom capability. GFP-positive objects were counted and scored as to whether they were […], clumps of less than ten cells without a visible vasculature, as determined by co-injection of tetramethylrhodamine labeled dextran (2 million MW).

The mark [4] stands for this setting: suspension culture, 5 days, read-out: EC50 4T1 stem cells in suspension culture.
Setting [5] is: i.p. injection or osmotic pump, vs untreated.

Molecules are shown by their SMILES. Where two headings read alike, the source gives them in different places.

As usually defined, the EC50 is the midpoint of the concentration-response curve. With `COc1cccc2c1C(=O)c1c(O)c3c(c(O)c1C2=O)C[C@@](O)(C(=O)CO)C[C@@H]3O[C@H]1C[C@H](N)[C@H](O)[C@H](C)O1` [Doxorubicin, reference compound], the EC50 in test [1] (Mus musculus, 4T1) was determined as 4.7 µM; in test [2] (Mus musculus, 4T1, 120 h, suspension culture, 5 days, read-out: EC50 4T1 stem cells in suspension culture) it was 630 µM. For the same compound, the Fold change in test [2] came out at 134.0. Also, the primary tumor growth entry in test [3] (administered i.p. at MTD) is given as “small effect”. For the same compound, the “number of large multicellular micrometastases and vascularized macrometastases to the lung” value in test [3] was “only minimal effects”.
As to `O=S(=O)([O-])c1cc(O)c2c(O)c(N=Nc3cccc4ccccc34)c(S(=O)(=O)[O-])cc2c1.[Na+].[Na+]` [DT320, 4,5-Dihydroxy-3-(1-naphthalenylazo)-2,7-naphthalenedisulfonic acid disodium salt], the EC50 in test [1] (plastic surface) was found to be 19.7 µM; in test [2] (grown on SISgel, read-out: EC50 4T1 stem cells grown on SISgel), 71 µM; in test [2] (setting [4]), 50 µM. Also, the Fold change in test [2] came out at 2.5. The primary tumor growth entry in test [3] (setting [5]) is given as “significant reduction”.
For `O=S(=O)([O-])c1ccc2c(N=Nc3cccc4ccccc34)c(O)c(S(=O)(=O)[O-])cc2c1.[Na+].[Na+]` [DT310, 4-(1-naphthalenylhydrazinylidene) -3-oxonaphthalene-2,7-disulfonic acid], the EC50 amounted to 14.4 µM in test [1] (plastic surface) and 141 µM in test [2] (setting [4]). In addition, in test [2], the Fold change came out at 9.8. Moreover, the primary tumor growth entry in test [3] (setting [5]) was “significant reduction”. Further, the “number of large multicellular micrometastases and vascularized macrometastases to the lung” value in test [3] is “most sharply”. The “number of single micrometastatic cells and small micrometastases in lung” value in test [3] (osmotic pump administration) was “significant effect”.
